Results published in PubChem BioAssay AID1963874 (Molecular Pharmacology Branch, DTP, NCI, 2024).

System: 253994-281-T-J1-PDC KRAS-mutant spheroids with HUVEC/MSC, viability
Test: Anticancer human tumor 253994-281-T-J1-PDC patient-derived colorectal carcinoma cell line growth inhibition [KRAS2]
Conditions: for IC50: curve of first compound; for viability, T/C: stronger effect = lower value; active = viability on the fitted dose curve at most 10% of control; inactive = the rest
In short: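 Combination screen of spheroid viability in tumor-cell co-cultures with endothelial (HUVEC) and mesenchymal stem cell stroma. Each agent was tested in half-log dilutions, topping at clinical Cmax or at 10 microM without a known Cmax.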

[1] = second compound 0.1 µM, first compound 0.0316 µM
[2] = second compound 0.1 µM, first compound 0.1 µM
[3] = second compound 0.1 µM, first compound 0.316 µM
[4] = second compound 0.1 µM, first compound 1 µM
[5] = second compound 0.1 µM, first compound 3.16 µM
[6] = second compound 0.1 µM, first compound 10 µM
[7] = second compound 0.316 µM, first compound 0.0316 µM
[8] = second compound 0.316 µM, first compound 0.1 µM
[9] = second compound 0.316 µM, first compound 0.316 µM
[10] = second compound 0.316 µM, first compound 1 µM
[11] = second compound 0.316 µM, first compound 3.16 µM
[12] = second compound 0.316 µM, first compound 10 µM
[13] = second compound 1 µM, first compound 0.0316 µM
[14] = second compound 1 µM, first compound 0.1 µM
[15] = second compound 1 µM, first compound 0.316 µM
[16] = second compound 1 µM, first compound 1 µM
[17] = second compound 1 µM, first compound 3.16 µM
[18] = second compound 1 µM, first compound 10 µM
[19] = second compound 3.16 µM, first compound 0.0316 µM
[20] = second compound 3.16 µM, first compound 0.1 µM
[21] = second compound 3.16 µM, first compound 0.316 µM
[22] = second compound 3.16 µM, first compound 1 µM
[23] = second compound 3.16 µM, first compound 3.16 µM
[24] = second compound 3.16 µM, first compound 10 µM
[25] = second compound 10 µM, first compound 0.0316 µM
[26] = second compound 10 µM, first compound 0.1 µM
[27] = second compound 10 µM, first compound 0.316 µM
[28] = second compound 10 µM, first compound 1 µM
[29] = second compound 10 µM, first compound 3.16 µM
[30] = second compound 10 µM, first compound 10 µM
[31] = second compound 0.1 µM, first compound 0.000316 µM
[32] = second compound 0.1 µM, first compound 0.001 µM
[33] = second compound 0.1 µM, first compound 0.00316 µM
[34] = second compound 0.1 µM, first compound 0.01 µM
[35] = second compound 0.316 µM, first compound 0.000316 µM
[36] = second compound 0.316 µM, first compound 0.001 µM
[37] = second compound 0.316 µM, first compound 0.00316 µM
[38] = second compound 0.316 µM, first compound 0.01 µM
[39] = second compound 1 µM, first compound 0.000316 µM
[40] = second compound 1 µM, first compound 0.001 µM
[41] = second compound 1 µM, first compound 0.00316 µM
[42] = second compound 1 µM, first compound 0.01 µM
[43] = second compound 3.16 µM, first compound 0.000316 µM
[44] = second compound 3.16 µM, first compound 0.001 µM
[45] = second compound 3.16 µM, first compound 0.00316 µM
[46] = second compound 3.16 µM, first compound 0.01 µM
[47] = second compound 10 µM, first compound 0.000316 µM
[48] = second compound 10 µM, first compound 0.001 µM
[49] = second compound 10 µM, first compound 0.00316 µM
[50] = second compound 10 µM, first compound 0.01 µM
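Also: spheroids exposed to agents for seven days before readout.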
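For viability, T/C in this document: percent of DMSO vehicle control viability.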

CC1OCC2(CCN(c3cnc(Sc4ccnc(N)c4Cl)c(N)n3)CC2)C1N (stereo not given) + CNCc1ccccc1-c1csc(C(C)Nc2nc(C)nc3cc(OC)c(OC)cc23)c1
inactive: viability, T/C [1] 93% | viability, T/C [2] 96.7% | viability, T/C [3] 93.3% | viability, T/C [4] 87.9% | viability, T/C [5] 79.1% | viability, T/C [6] 51.8% | viability, T/C [7] 94.7% | viability, T/C [8] 83.9% | viability, T/C [9] 85.6% | viability, T/C [10] 82.5% | viability, T/C [11] 68.1% | viability, T/C [12] 51.8% | viability, T/C [13] 90.3% | viability, T/C [14] 95.2% | viability, T/C [15] 78.7% | viability, T/C [16] 64.8% | viability, T/C [17] 60.9% | viability, T/C [18] 36.5% | viability, T/C [19] 43.8% | viability, T/C [20] 28% | viability, T/C [21] 31.1% | viability, T/C [22] 31.2% | viability, T/C [23] 24.8% | viability, T/C [24] 0.81%
< 31.6 nM: IC50 (second compound 3.16 µM) | IC50 (second compound 10 µM)
> 10000 nM: IC50 (second compound 0.1 µM) | IC50 (second compound 0.316 µM)
active: viability, T/C [25] 0.21% | viability, T/C [26] 0.25% | viability, T/C [27] 0.22% | viability, T/C [28] 0.19% | viability, T/C [29] 0.23% | viability, T/C [30] 0.21%
4610 nM: IC50 (second compound 1 µM)

CC(=O)Nc1cccc(-n2c(=O)n(C3CC3)c(=O)c3c(Nc4ccc(I)cc4F)n(C)c(=O)c(C)c32)c1 + COc1cc2nc(C)nc(NC(C)c3cc(N)cc(C(F)(F)F)c3)c2cc1OC1CCOC1
0.173 nM: IC50 (second compound 10 µM)
inactive: viability, T/C (second compound 0.1 µM, first compound 0.0001 µM) 82.8% | viability, T/C [31] 60.4% | viability, T/C [32] 30.9% | viability, T/C [33] 14.4% | viability, T/C (second compound 0.316 µM, first compound 0.0001 µM) 68% | viability, T/C [35] 50.7% | viability, T/C [36] 27.9% | viability, T/C [37] 14.8% | viability, T/C (second compound 1 µM, first compound 0.0001 µM) 59.9% | viability, T/C [39] 51.7% | viability, T/C [40] 23.5% | viability, T/C (second compound 3.16 µM, first compound 0.0001 µM) 59.7% | viability, T/C [43] 34% | viability, T/C [44] 20.2% | viability, T/C [45] 10.6% | viability, T/C (second compound 10 µM, first compound 0.0001 µM) 74.6% | viability, T/C [47] 21.5% | viability, T/C [48] 13.6%
0.473 nM: IC50 (second compound 0.1 µM)
active: viability, T/C [34] 10.5% | viability, T/C [1] 5.47% | viability, T/C [38] 10.7% | viability, T/C [7] 5.1% | viability, T/C [41] 11.6% | viability, T/C [42] 9.28% | viability, T/C [13] 4.8% | viability, T/C [46] 8.21% | viability, T/C [19] 4.13% | viability, T/C [49] 8.98% | viability, T/C [50] 5.81% | viability, T/C [25] 2.33%
0.154 nM: IC50 (second compound 3.16 µM)
0.331 nM: IC50 (second compound 1 µM)
0.318 nM: IC50 (second compound 0.316 µM)

CC(=O)OC12COC1CC(O)C1(C)C(=O)C(O)C3=C(C)C(OC(=O)C(O)C(NC(=O)OC(C)(C)C)c4ccccc4)CC(O)(C(OC(=O)c4ccccc4)C21)C3(C)C (stereo not given) + COc1cc2nc(C)nc(NC(C)c3cc(N)cc(C(F)(F)F)c3)c2cc1OC1CCOC1
< 10 nM: IC50 (second compound 0.316 µM) | IC50 (second compound 1 µM) | IC50 (second compound 3.16 µM) | IC50 (second compound 10 µM)
16.7 nM: IC50 (second compound 0.1 µM)
inactive: viability, T/C [34] 61.3% | viability, T/C [1] 35.7% | viability, T/C [2] 26.1% | viability, T/C [3] 20.6% | viability, T/C [4] 22.6% | viability, T/C [5] 19.6% | viability, T/C [38] 46.2% | viability, T/C [7] 26.9% | viability, T/C [8] 21.4% | viability, T/C [9] 19.7% | viability, T/C [10] 18.8% | viability, T/C [11] 19.1% | viability, T/C [42] 35.9% | viability, T/C [13] 41.4% | viability, T/C [14] 21.6% | viability, T/C [15] 19.9% | viability, T/C [16] 19.7% | viability, T/C [17] 22.8% | viability, T/C [46] 25.8% | viability, T/C [19] 21.6% | viability, T/C [20] 17.4% | viability, T/C [21] 18% | viability, T/C [22] 20.1% | viability, T/C [23] 20.6% | viability, T/C [50] 20.1% | viability, T/C [25] 22.4% | viability, T/C [26] 19.2% | viability, T/C [27] 23.3% | viability, T/C [28] 20.2% | viability, T/C [29] 25.4%

CN(C)C/C=C/C(=O)Nc1cc2c(Nc3ccc(F)c(Cl)c3)ncnc2cc1O[C@H]1CCOC1 + COc1cc2nc(C)nc(NC(C)c3cc(N)cc(C(F)(F)F)c3)c2cc1OC1CCOC1
> 100 nM: IC50 (second compound 0.1 µM) | IC50 (second compound 0.316 µM) | IC50 (second compound 1 µM) | IC50 (second compound 3.16 µM) | IC50 (second compound 10 µM)
inactive: viability, T/C [31] 100% | viability, T/C [32] 98.2% | viability, T/C [33] 108% | viability, T/C [34] 85.8% | viability, T/C [1] 90% | viability, T/C [2] 67.7% | viability, T/C [35] 86.3% | viability, T/C [36] 97.8% | viability, T/C [37] 86.8% | viability, T/C [38] 81.5% | viability, T/C [7] 73.5% | viability, T/C [8] 57.8% | viability, T/C [39] 84.4% | viability, T/C [40] 88.7% | viability, T/C [41] 116% | viability, T/C [42] 90% | viability, T/C [13] 91.2% | viability, T/C [14] 69.8% | viability, T/C [43] 94.8% | viability, T/C [44] 87.4% | viability, T/C [45] 81.3% | viability, T/C [46] 86.8% | viability, T/C [19] 61.2% | viability, T/C [20] 55.2% | viability, T/C [47] 83.5% | viability, T/C [48] 84.1% | viability, T/C [49] 82.9% | viability, T/C [50] 79.2% | viability, T/C [25] 68.8% | viability, T/C [26] 54.5%

COC(=O)c1ccc2c(C(=Nc3ccc(N(C)C(=O)CN4CCN(C)CC4)cc3)c3ccccc3)c(O)[nH]c2c1 + COc1cc2nc(C)nc(NC(C)c3cc(N)cc(C(F)(F)F)c3)c2cc1OC1CCOC1
5280 nM: IC50 (second compound 0.1 µM)
inactive: viability, T/C [1] 100% | viability, T/C [2] 103% | viability, T/C [3] 103% | viability, T/C [4] 85.1% | viability, T/C [5] 85.6% | viability, T/C [6] 9.83% | viability, T/C [7] 93.6% | viability, T/C [8] 75% | viability, T/C [9] 79.2% | viability, T/C [10] 91.6% | viability, T/C [11] 74.2% | viability, T/C [12] 22.8% | viability, T/C [13] 71.9% | viability, T/C [14] 71.6% | viability, T/C [15] 73.1% | viability, T/C [16] 85.1% | viability, T/C [17] 71.3% | viability, T/C [19] 73.4% | viability, T/C [20] 75.4% | viability, T/C [21] 84.4% | viability, T/C [22] 74.5% | viability, T/C [23] 40.2% | viability, T/C [25] 68.6% | viability, T/C [26] 79.1% | viability, T/C [27] 48.6% | viability, T/C [28] 54.4% | viability, T/C [29] 12.4%
721 nM: IC50 (second compound 10 µM)
active: viability, T/C [18] 7.12% | viability, T/C [24] 0.2% | viability, T/C [30] 0.21%
4650 nM: IC50 (second compound 1 µM)
2290 nM: IC50 (second compound 3.16 µM)
5430 nM: IC50 (second compound 0.316 µM)

O=C(c1cc(Cc2n[nH]c(=O)c3ccccc23)ccc1F)N1CCN(C(=O)C2CC2)CC1 + COc1cc2nc(C)nc(NC(C)c3cc(N)cc(C(F)(F)F)c3)c2cc1OC1CCOC1
inactive: viability, T/C [1] 86.4% | viability, T/C [2] 88.5% | viability, T/C [3] 85.3% | viability, T/C [4] 91.2% | viability, T/C [5] 96.1% | viability, T/C [6] 106% | viability, T/C [7] 92.3% | viability, T/C [8] 82.5% | viability, T/C [9] 81.1% | viability, T/C [10] 94.3% | viability, T/C [11] 90.7% | viability, T/C [12] 68.6% | viability, T/C [13] 102% | viability, T/C [14] 87.7% | viability, T/C [15] 92.4% | viability, T/C [16] 103% | viability, T/C [17] 115% | viability, T/C [18] 90.2% | viability, T/C [19] 92.7% | viability, T/C [20] 90.5% | viability, T/C [21] 89.3% | viability, T/C [22] 129% | viability, T/C [23] 74.5% | viability, T/C [24] 86.6% | viability, T/C [25] 93.6% | viability, T/C [26] 98.7% | viability, T/C [27] 90.8% | viability, T/C [28] 84.3% | viability, T/C [29] 99% | viability, T/C [30] 106%
> 10000 nM: IC50 (second compound 0.1 µM) | IC50 (second compound 0.316 µM) | IC50 (second compound 1 µM) | IC50 (second compound 3.16 µM) | IC50 (second compound 10 µM)
